The numbers were not newly measured in patent US8993316B2, “Methods and compositions for gene therapy and GHRH therapy” (priority 2011, dated 2015), which cites them from elsewhere.

Assay in data set [1]: not given
The source holds these as a separate data set.

As to `COc1cc(CC(C)N)c(OC)cc1I` (stereo not drawn) [DOI, 2,5-dimethoxy-4-iodoamphetamine], the rough half-life (in vivo) was 12 to 15 h. Further, for the setting “long acting”, the therapeutic effect duration was at least 30 h.
With “GHRH: growth hormone releasing hormone, a peptide hormone”, the half-life after injection result in data set [1] is recorded as “roughly 8 minutes”.
